Reference: patent US20180186796A1, “COMPOUNDS AND USES THEREOF” (LEAD DISCOVERY SIENA S.R.L., priority 2014, published 2018)
≈ marks a conversion by molar mass, not a printed value. Where two headings read alike, the source gives them in different places.

Columns and labels:
Recombinant human Src = molecular target: T1, Recombinant human Src (Homo sapiens, UniProt P12931); test: Enzymatic assay on isolated Src; format: biochemical
T1 construct: purchased Upstate (Lake Placid, N.Y.)
Text: Recombinant human Src was purchased from Upstate (Lake Placid, N.Y.).

[1] = Microsomal stability assay; conditions: for Metabolic Stab.: percentage of unmodified parent drug, human liver microsomes 60 min; for Metabolic Stab. %: percentage of unmodified drug, Table 8
[2] = PAMPA, intestinal (GI) permeability; conditions: for Papp / Papp at 5 h, 0.5 mM: PAMPA; for Papp: Table 6; for PAMPA GI (MR %): Membrane Retention; for Papp at 5 h, 0.5 mM: pH 7.4
recombinant Fyn = recombinant Fyn (Homo sapiens, UniProt P06241); test: Enzymatic assay on isolated Fyn kinase
Water solubility assay = conditions: for solubility at 24 h / solubility thermodynamic at 24 h: water, 20 °C, thermodynamic from solid; for H2O Solubility: Table 6
Experimental: Each solid compound (1 mg) was added to 1 mL of water. […] The suspensions were filtered through a 0.45 μm nylon filter (Acrodisc), and the solubilized compound determined by LC-MS-MS assay. For each compound the determination was performed in triplicate. […] The flow rate was 0.2 mL min-^−1 and injection volume was 5 μL. The instrument operated in positive mode and parameters were: detector 1850 V, drying gas pressure 25.0 psi, desolvation temperature 300.0° C., nebulizing gas 40.0 psi, needle 5000 V and shield 600 V. Nitrogen was used as nebulizer gas and drying gas.
Solid compound (1 mg) was added to 1 mL of water. […] The suspensions were filtered through a 0.45-μm nylon filter (Acrodisc), and the solubilised compound determined by LC-UV-MS assay. The determination was performed in triplicate.
Chromatographic analysis was performed with the method above reported and quantification of compounds was made by comparison with apposite calibration curves realized with standard solutions in methanol.

PAMPA, BBB permeability = conditions: for PAMPA BBB (MR %): Membrane Retention; for Papp at 5 h, 0.5 mM: PAMPA, pH 7.4
Experimental: Donor solution (0.5 mM) was prepared by diluting 1 mM dimethylsulfoxide (DMSO) compound stock solution using phosphate buffer (pH 7.4, 0.025 M). […] Donor solution (150 μL) was added to each well of the filter plate. To each well of the acceptor plate were added 300 μL of solution (50% DMSO in phosphate buffer). All compounds were tested in three different plates on different days. The sandwich was incubated for 5 h at room temperature under gentle shaking. After the incubation time, the plates were separated, and samples were taken from both receiver and donor sides and analyzed using LC with UV detection at 280 nm.
Permeability (Papp) for PAMPA was calculated according to the following equation, obtained from Wohnsland and Faller^27 and Sugano et al.^28 equation with some modification in order to obtain permeability values in cm s^−1,
Drug concentration is estimated by using the peak area integration. Membrane retentions (%) were calculated according to the following equation:
where r is the ratio between drug concentration in the acceptor and equilibrium concentration, D, A, and Eq represented drug concentration in the donor, acceptor and equilibrium solution, respectively.
Donor solution of tested compounds (0.5 mM) was prepared by diluting 1 mM dimethylsulfoxide (DMSO) compound stock solution using phosphate buffer (pH 7.4, 25 mM). […] Donor solution (150 μL) was added to each well of the filter plate. To each well of the acceptor plate were added 300 μL of solution (50% DMSO in phosphate buffer). Compounds was tested in three different plates on different days. The sandwich was incubated for 5 h at room temperature under gentle shaking.
Permeability (Papp) for PAMPA was calculated according to the following equation, obtained from Wohnsland and Faller and Sugano et al.^27, 28.
Drug concentration is estimated by using the peak area integration. Membrane retention (%) was calculated according to the following equation:

[3] = mean of at least two experiments, read-out: Enzymatic Data (Ki, μM) c-Src
[4] = read-out: Enzymatic Data (Ki, μM) Fyn

T1 sequence (P12931 whole entry): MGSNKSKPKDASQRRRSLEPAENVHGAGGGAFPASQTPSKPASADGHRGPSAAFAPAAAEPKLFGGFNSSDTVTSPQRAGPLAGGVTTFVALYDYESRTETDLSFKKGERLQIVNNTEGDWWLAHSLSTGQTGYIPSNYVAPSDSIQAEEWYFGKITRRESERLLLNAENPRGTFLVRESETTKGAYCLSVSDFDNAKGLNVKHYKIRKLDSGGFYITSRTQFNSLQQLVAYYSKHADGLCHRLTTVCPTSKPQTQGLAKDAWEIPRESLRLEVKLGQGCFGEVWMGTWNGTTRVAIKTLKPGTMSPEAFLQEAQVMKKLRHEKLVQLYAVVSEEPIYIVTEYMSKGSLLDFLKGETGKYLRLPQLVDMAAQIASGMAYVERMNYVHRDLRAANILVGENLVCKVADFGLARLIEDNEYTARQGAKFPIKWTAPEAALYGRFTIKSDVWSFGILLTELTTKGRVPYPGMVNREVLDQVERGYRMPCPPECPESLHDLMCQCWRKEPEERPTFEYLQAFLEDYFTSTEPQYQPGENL
recombinant Fyn, sequence (P06241 whole entry, looked up): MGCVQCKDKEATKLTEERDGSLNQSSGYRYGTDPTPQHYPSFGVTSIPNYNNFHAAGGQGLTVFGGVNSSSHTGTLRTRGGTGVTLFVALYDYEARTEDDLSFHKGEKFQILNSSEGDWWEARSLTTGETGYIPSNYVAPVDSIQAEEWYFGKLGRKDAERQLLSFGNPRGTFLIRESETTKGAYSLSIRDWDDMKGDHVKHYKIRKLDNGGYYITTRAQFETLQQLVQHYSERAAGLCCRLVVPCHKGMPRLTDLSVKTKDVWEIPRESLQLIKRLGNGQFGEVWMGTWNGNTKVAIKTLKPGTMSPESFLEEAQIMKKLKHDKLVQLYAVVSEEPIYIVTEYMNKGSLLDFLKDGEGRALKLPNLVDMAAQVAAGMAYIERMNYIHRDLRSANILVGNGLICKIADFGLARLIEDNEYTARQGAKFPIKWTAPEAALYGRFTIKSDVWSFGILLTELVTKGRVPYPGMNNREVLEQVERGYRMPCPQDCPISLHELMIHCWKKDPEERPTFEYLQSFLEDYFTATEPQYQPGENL

Compound: CSc1nc(Nc2ccccc2)c2cnn(CCc3ccccc3)c2n1
- Ki (Recombinant human Src; [3]): 1.46 µM
- Metabolic Stab. [1]: 90%
- Papp [2]: 7.60 10^−6 cm/sec

Compound: CSc1nc(Nc2cccc(F)c2)c2cnn(CCc3ccccc3)c2n1
- Ki (Recombinant human Src; [3]): 1.06 µM
- Papp [2]: 9.33 10^−6 cm/sec

Compound: CSc1nc(Nc2cccc(Br)c2)c2cnn(CCc3ccccc3)c2n1
- Ki (Recombinant human Src; [3]): 0.2 µM
- Papp [2]: 3.26 10^−6 cm/sec

Compound: CSc1nc(Nc2cccc(O)c2)c2cnn(CCc3ccccc3)c2n1
- Ki (Recombinant human Src; [3]): 0.62 µM
- Papp [2]: 5.24 10^−6 cm/sec

Compound: Clc1cccc(Nc2nc(SCCN3CCOCC3)nc3c2cnn3CCc2ccccc2)c1
- Ki (Recombinant human Src; [3]): 1.2 µM
- Papp [2]: 3.50 10^−6 cm/sec

Compound: CCSc1nc(Nc2cccc(F)c2)c2cnn(CC(C)c3ccccc3)c2n1 (stereo not shown)
- Ki (Recombinant human Src; [3]): 0.79 µM
- Metabolic Stab. [1]: 94%
- Papp [2]: 1.72 10^−6 cm/sec

Compound: CCSc1nc(Nc2cccc(Cl)c2)c2cnn(CC(C)c3ccccc3)c2n1 (stereo not shown)
- Ki (Recombinant human Src; [3]): 0.55 µM
- Papp [2]: 3.81 10^−6 cm/sec

Compound: CCSc1nc(Nc2cccc(Br)c2)c2cnn(CC(C)c3ccccc3)c2n1 (stereo not shown)
- Ki (Recombinant human Src): ~0.1 µM
- Ki (Recombinant human Src; [3]): 0.1 µM
- Papp [2]: 2.03 10^−6 cm/sec

Compound: CCSc1nc(Nc2cccc(O)c2)c2cnn(CC(C)c3ccccc3)c2n1 (stereo not shown)
- Ki (Recombinant human Src; [3]): 0.11 µM
- Papp [2]: 4.91 10^−6 cm/sec

Compound: CC(Cn1ncc2c(Nc3ccccc3)nc(SCCN3CCOCC3)nc21)c1ccccc1 (stereo not shown)
- Ki (Recombinant human Src; [3]): 1.44 µM
- Papp [2]: 3.66 10^−6 cm/sec

Compound: CC(Cn1ncc2c(Nc3cccc(F)c3)nc(SCCN3CCOCC3)nc21)c1ccccc1 (stereo not shown)
- Ki (Recombinant human Src; [3]): 2.34 µM
- Papp [2]: 6.51 10^−6 cm/sec

Compound: CC(Cn1ncc2c(Nc3cccc(Cl)c3)nc(SCCN3CCOCC3)nc21)c1ccccc1 (stereo not shown)
- Ki (Recombinant human Src; [3]): 0.97 µM
- Papp [2]: 5.51 10^−6 cm/sec

Compound: CCCCSc1nc(Nc2cccc(O)c2)c2cnn(CC(Cl)c3ccccc3)c2n1 (stereo not shown)
- Ki (Recombinant human Src; [3]): 0.13 µM
- Papp [2]: 3.43 10^−6 cm/sec

Compound: CC(C)Sc1nc(Nc2ccccc2)c2cnn(CC(Cl)c3ccccc3)c2n1 (stereo not shown)
- Ki (Recombinant human Src; [3]): 0.3 µM

Compound: CC(C)Sc1nc(Nc2cccc(F)c2)c2cnn(CC(Cl)c3ccccc3)c2n1 (stereo not shown)
- Ki (Recombinant human Src; [3]): 0.26 µM

Compound: CC(C)Sc1nc(Nc2cccc(Br)c2)c2cnn(CC(Cl)c3ccccc3)c2n1 (stereo not shown)
- Ki (Recombinant human Src; [3]): 0.62 µM

Compound: ClC(Cn1ncc2c(Nc3ccccc3)nc(SC3CCCC3)nc21)c1ccccc1 (stereo not shown)
- Ki (Recombinant human Src; [3]): 0.12 µM
- Metabolic Stab. [1]: 94%
- Papp [2]: 13 10^−6 cm/sec

Compound: CC(Cn1nc(-c2ccc3[nH]ccc3c2)c2c(N)ncnc21)c1ccccc1 (stereo not shown)
- Ki (recombinant Fyn; [4]): 1.62 µM

Compound: CCCCSc1nc(NCCc2ccccc2)c2cnn(CC(Cl)c3ccccc3)c2n1 (stereo not shown)
- Ki (recombinant Fyn): > 100 µM

Compound: ClC(Cn1ncc2c(NCCc3ccccc3)nc(SC3CCCC3)nc21)c1ccccc1 (stereo not shown)
- Ki (recombinant Fyn): > 100 µM

Compound: ClC(Cn1ncc2c(NCCc3ccccc3)nc(SCCN3CCOCC3)nc21)c1ccccc1 (stereo not shown)
- Ki (recombinant Fyn): > 100 µM

Compound: COc1ccc(-c2nn(CC(Cl)c3ccccc3)c3ncnc(N)c23)cc1 (stereo not shown)
- Ki (recombinant Fyn; [4]): 1.49 µM

Compound: CNc1nc(SC)nc2c1c(-c1ccccc1)nn2CCc1ccccc1
- Ki (recombinant Fyn): > 10 µM

Compound: COC(Cn1nc(-c2ccccc2)c2c(N)nc(SC)nc21)c1ccccc1 (stereo not shown)
- Ki (recombinant Fyn): > 10 µM

Compound: ClC(Cn1ncc2c(NCc3ccccc3)ncnc21)c1ccccc1 (stereo not shown) [Si3]
- Ki (recombinant Fyn; read-out: Ki Fyn): 3.5 µM

Compound: CSc1nc(NCCc2ccccc2)c2cnn(CC(Cl)c3ccccc3)c2n1 (stereo not shown) [Si35, 1-(2-chloro-2-phenylethyl)-6-(methylthio)-N-phenethyl-1H-pyrazolo[3,4-d]pyrimidin-4-amine]
- solubility at 24 h (Water solubility assay): 0.166 µM (≈ 0.0704 µg/mL)
- solubility thermodynamic at 24 h (Water solubility assay): 0.07 µg/mL (≈ 0.165 µM)
- PAMPA BBB (MR %) (PAMPA, BBB permeability): (24.5) %
- Papp at 5 h, 0.5 mM (PAMPA, BBB permeability): 6.17 ×10⁻⁶ cm/s
- Metabolic Stab. % [1]: 96.2%
- PAMPA GI (MR %) [2]: (33.0) %
- Papp at 5 h, 0.5 mM [2]: 7.4 ×10⁻⁶ cm/s

Compound: OCCNc1nc(NCc2ccccc2)c2cnn(/C=C/c3ccccc3)c2n1 [Si74, 2-(4-benzylamino-1-styryl-1H-pyrazolo[3,4-d]pyrimidin-6-ylamino)-ethanol]
- Ki (recombinant Fyn; read-out: Ki Fyn): 1.15 µM

Compound: CSc1nc(Nc2cccc(Cl)c2)c2cnn(CC(Cl)c3ccccc3)c2n1 (stereo not shown) [Si83, 1-(2-chloro-2-phenylethyl)-N-(3-chlorophenyl)-6-(methylthio)-1H-pyrazolo[3,4-d]pyrimidin-4-amine]
- solubility at 24 h (Water solubility assay): 0.295 µM (≈ 0.127 µg/mL)
- solubility thermodynamic at 24 h (Water solubility assay): 0.13 µg/mL (≈ 0.302 µM)
- PAMPA BBB (MR %) (PAMPA, BBB permeability): (39.6) %
- Papp at 5 h, 0.5 mM (PAMPA, BBB permeability): 3.14 ×10⁻⁶ cm/s
- Metabolic Stab. % [1]: 91.1%
- PAMPA GI (MR %) [2]: (69.9) %
- Papp at 5 h, 0.5 mM [2]: 0.26 ×10⁻⁶ cm/s

Compound: CCCNc1nc(SCCN2CCOCC2)nc2c1cnn2CC(Cl)c1ccccc1 (stereo not shown) [Si109, 1-(2-chloro-2-phenylethyl)-6-((2-morpholinoethyl)thio)-N-propyl-1H-pyrazolo[3,4-d]pyrimidin-4-amine]
- Ki (recombinant Fyn): 7.5 to 16 µM

Compound: ClC(Cn1ncc2c(NCc3ccccc3)nc(Cc3ccccc3)nc21)c1ccccc1 (stereo not shown) [Si164, N,6-dibenzyl-1-(2-chloro-2-phenylethyl)-1H-pyrazolo[3,4-d]pyrimidin-4-amine]
- Ki (recombinant Fyn): 7.5 to 16 µM

Compound: Fc1cccc(Nc2nc(SC3CCCC3)nc3c2cnn3CC(Cl)c2ccccc2)c1 (stereo not shown) [Si170, 1-(2-Chloro-2-phenylethyl)-6-(cyclopentylthio)-N-(3-fluorophenyl)-1H-pyrazolo[3,4-d]pyrimidin-4-amine]
- Ki (Recombinant human Src; read-out: Ki c-Src): ~0.1 µM

Compound: CCCCSc1nc(Nc2cccc(Cl)c2)c2cnn(CC(Cl)c3ccccc3)c2n1 (stereo not shown) [Si174]
- Ki (recombinant Fyn; read-out: Ki Fyn): 1.4 µM

Compound: Fc1ccc(CNc2nc(SCCN3CCOCC3)nc3c2cnn3CC(Cl)c2ccccc2)cc1 (stereo not shown) [Si180, 1-(2-chloro-2-phenylethyl)-N-(4-fluorobenzyl)-6-((2-morpholinoethyl)thio)-1H-pyrazolo[3,4-d]pyrimidin-4-amine]
- Ki (recombinant Fyn): 7.5 to 16 µM

Compound: CSc1nc(NCCc2cccc(Cl)c2)c2cnn(/C=C/c3ccccc3)c2n1 [Si215, N-[2-(3-chlorophenyl)ethyl]-6-(methylthio)-1-[2-phenylvinyl]-1H-pyrazolo[3,4-d]pyrimidin-4-amine]
- Ki (recombinant Fyn): 7.5 to 16 µM

Compound: Clc1ccccc1CNc1ncnc2c1cnn2CC(Cl)c1ccc(Br)cc1 (stereo not shown) [Si221]
- H2O Sol. (Log S) (Water solubility assay; Table 8): (<−8.60) log mol · L^−1
- H2O Sol. (Water solubility assay; Table 8, 20° C., 24 h): <0.01 µg/mL
- PAMPA BBB (PAMPA, BBB permeability; Blood Brain Barrier PAMPA): 13.23 10^−6 cm · sec^−1
- PAMPA BBB (MR %) (PAMPA, BBB permeability): (7.3) %
- Metabolic Stab. % [1]: 95.2%
- PAMPA GI ([2]; Gastrointestinal PAMPA, Table 8): 8.78 10^−6 cm · sec^−1
- PAMPA GI (MR %) [2]: (21.0) %

Compound: CC(Cn1ncc2c(Nc3cccc(O)c3)nc(SCCN3CCOCC3)nc21)c1ccccc1.Cl (stereo not shown) [Si329, 3-{[6-[(2-Morpholin-4-ylethyl)thio]-1-(2-phenylpropyl)-1H-pyrazolo[3,4-d]pyrimidin-4-yl]amino}phenol hydrochloride]
- H2O Solubility (Water solubility assay): 1 µg/mL
- Metabolic Stab. [1]: 99%
- Papp [2]: 6.81 10^−6 cm/sec

Compound: Cl.Oc1cccc(Nc2nc(SCCN3CCOCC3)nc3c2cnn3CCc2ccccc2)c1 [Si332, 3-{[6-[(2-Morpholin-4-ylethyl)thio]-1-(2-phenylethyl)-1H-pyrazolo[3,4-d]pyrimidin-4-yl]amino}phenol hydrochloride]
- H2O Solubility (Water solubility assay): 97 µg/mL
- solubility value (Water solubility assay; aqueous): 97 µg/mL
- Metabolic Stab. [1]: 97%
- Papp [2]: 6.38 10^−6 cm/sec

Compound: CC(Cn1nc(-c2ccc(Cl)cc2)c2c(N)ncnc21)c1ccccc1 (stereo not shown) [Si337, 3-(4-Chlorophenyl)-1-(2-phenylpropyl)-1H-pyrazolo[3,4-d]pyrimidin-4-amine]
- Ki (recombinant Fyn): 0.78 µM
- decreased Fyn activity on substitution of chlorine by methyl in N1 side chain (recombinant Fyn; Si312 vs Si244, Si337 vs Si308, Si338 vs Si309): about 10 fold

Compound: Fc1ccc(CCn2ncc3c(Nc4cccc(Cl)c4)nc(SCCN4CCOCC4)nc32)cc1 [drawing 171]
- Ki (Recombinant human Src; [3]): 0.1 µM
- Metabolic Stab. [1]: 97%
- Papp at 5 h, 0.5 mM [2]: 2.15 ×10⁻⁶ cm/s

Compound: Fc1cccc(Nc2nc(SC3CCCC3)nc3c2cnn3CC(Cl)c2ccccc2)c1 (stereo not shown) [drawing 191, reference compound]
- Ki (recombinant Fyn): > 100 µM

Compound: CCCNc1nc(SCCN2CCOCC2)nc2c1cnn2CC(Cl)c1ccccc1 (stereo not shown) [drawing 192]
- Ki (recombinant Fyn; [4]): 8.15 µM

Compound: Fc1ccc(CNc2nc(SCCN3CCOCC3)nc3c2cnn3CC(Cl)c2ccccc2)cc1 (stereo not shown) [drawing 193]
- Ki (recombinant Fyn; [4]): 15.5 µM

Compound: CCC(C)Sc1nc(NCc2ccccc2)c2cnn(CC(Cl)c3ccccc3)c2n1 (stereo not shown) [drawing 195]
- Ki (recombinant Fyn): > 100 µM

Compound: CCC(C)Sc1nc(NCCc2ccccc2)c2cnn(CC(Cl)c3ccccc3)c2n1 (stereo not shown) [drawing 196]
- Ki (recombinant Fyn): > 100 µM

Compound: CSc1nc(NCCc2cccc(Cl)c2)c2cnn(/C=C/c3ccccc3)c2n1 [drawing 198]
- Ki (recombinant Fyn; [4]): 16 µM

Compound: ClC(Cn1ncc2c(NCc3ccccc3)nc(Cc3ccccc3)nc21)c1ccccc1 (stereo not shown) [drawing 200]
- Ki (recombinant Fyn; [4]): 13 µM

Compound: CC(=O)c1ccc(-c2nn(CC(C)c3ccccc3)c3ncnc(N)c23)cc1 (stereo not shown) [drawing 206]
- Ki (recombinant Fyn): > 10 µM
